Data on seven compounds can be found in ChEMBL document CHEMBL5346863, “Discovery of substituted benzyloxy-benzylamine inhibitors of acetyltransferase Eis and their anti-mycobacterial activity” (Eur J Med Chem, 2022).

Test [1] concerns the target T1, N-acetyltransferase Eis (Mycobacterium tuberculosis (strain ATCC 25618 / H37Rv), UniProt P9WFK7).
T1 sequence (P9WFK7 whole entry): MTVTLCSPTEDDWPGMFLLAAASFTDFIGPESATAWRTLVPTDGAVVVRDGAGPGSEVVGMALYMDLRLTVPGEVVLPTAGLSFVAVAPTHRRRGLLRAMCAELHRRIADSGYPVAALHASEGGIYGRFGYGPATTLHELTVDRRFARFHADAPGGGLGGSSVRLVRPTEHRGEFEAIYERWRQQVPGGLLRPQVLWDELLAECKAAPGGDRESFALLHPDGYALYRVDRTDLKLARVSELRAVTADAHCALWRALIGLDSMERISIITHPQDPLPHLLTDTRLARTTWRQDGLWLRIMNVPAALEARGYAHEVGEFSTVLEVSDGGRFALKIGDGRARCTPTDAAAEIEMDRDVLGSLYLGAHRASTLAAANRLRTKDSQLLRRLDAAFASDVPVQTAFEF
As to the kind of experiment: Inhibition of wild-type Mycobacterium tuberculosis Eis expressed in Escherichia coli BL21(DE3) cells incubated for 5 mins by Ellman's method.

Test [2] concerns Mycobacterium tuberculosis. As to the kind of experiment: Antibacterial activity against Mycobacterium tuberculosis H37Ra assessed as bacterial growth inhibition incubated 2 to 3 weeks by resazurin dye based assay. The test is classed as functional. The following applies: time 2-3 weeks. For orientation: The colour change of resazurin is a common sign of viable cells or microbes.

The test system of test [3] is Mycobacterium tuberculosis. Put plainly: Antibacterial activity against Mycobacterium tuberculosis H37Rv assessed as MIC of kanamycin A at 19.7 uM incubated for 24 hrs followed by kanamycin A addition measured after 6 days by alamarblue dye based assay. The test is classed as functional. As to conditions: 168 h, time 7 day.
The test system of test [4] is Mycobacterium tuberculosis. As to the kind of experiment: Antibacterial activity against Mycobacterium tuberculosis mc2 6230 assessed as bacterial growth inhibition incubated 2 to 3 weeks by resazurin dye based assay. In kind it is functional. The following applies: time 2-3 weeks.
The test system of test [5] is Mycobacteroides abscessus. As to the kind of experiment: Antibacterial activity against Mycobacterium abscessus ATCC 19977 assessed as bacterial growth inhibition incubated for 2 to 3 weeks by resazurin dye based assay. In kind it is functional. As to conditions: time 2-3 weeks.
The next test concerns Mycobacterium avium. Put plainly: Antibacterial activity against Mycobacterium avium ATCC 25291 assessed as bacterial growth inhibition incubated for 2 to 3 weeks by resazurin dye based assay. The test is classed as functional. As to conditions: time 2-3 weeks.
Test [6] relates to Mycobacterium intracellulare. As to the kind of experiment: Antibacterial activity against Mycobacterium intracellulare ATCC 13950 assessed as bacterial growth inhibition incubated for 2 to 3 weeks by resazurin dye based assay. In kind it is functional. As to conditions: time 2-3 weeks.
Test [7] has as its system Mycobacterium tuberculosis. As to the kind of experiment: Antibacterial activity against Mycobacterium tuberculosis H37Rv assessed as MIC of kanamycin A at 100 uM incubated for 24 hrs followed by kanamycin A addition measured after 6 days by alamarblue dye based assay. As to conditions: time 7.0 day. In kind it is functional.
The test system of test [8] is Mycobacterium tuberculosis. As to the kind of experiment: Antibacterial activity against Mycobacterium tuberculosis mc2 6230 assessed as MIC of kanamycin A at 50 uM incubated for 24 hrs followed by kanamycin A addition measured after 6 days by alamarblue dye based assay. The test is classed as functional. As to conditions: mc2 6230, 168 h, time 7 day.
The subject of test [9] is Mycobacterium tuberculosis. As to the kind of experiment: Antibacterial activity against Mycobacterium tuberculosis mc2 6230 K204 assessed as MIC of kanamycin A at 50 uM incubated for 24 hrs followed by kanamycin A addition measured after 6 days by alamarblue dye based assay. The test is classed as functional. As to conditions: mc2 6230 K204, 168 h, time 7 day.
Test [10] concerns the target T1, N-acetyltransferase Eis. As to the kind of experiment: Binding affinity to wild-type Mycobacterium tuberculosis Eis expressed in Escherichia coli BL21(DE3) cells assessed as inhibition constant incubated for 5 mins by Ellman's method based Michaelis-Menten analysis.
Test [11] has as its system Mycobacterium tuberculosis. As to the kind of experiment: Antibacterial activity against Mycobacterium tuberculosis H37Rv assessed as MIC of kanamycin A at 27.5 uM incubated for 24 hrs followed by kanamycin A addition measured after 6 days by alamarblue dye based assay. The following applies: 168 h, time 7 day. In kind it is functional.
The subject of test [12] is Mycobacterium tuberculosis. Put plainly: Antibacterial activity against Mycobacterium tuberculosis mc2 6230 assessed as MIC of kanamycin A at 25 uM incubated for 24 hrs followed by kanamycin A addition measured after 6 days by alamarblue dye based assay. In kind it is functional. As to conditions: mc2 6230, 168 h, time 7 day.
Test [13] concerns Mycobacterium tuberculosis. As to the kind of experiment: Antibacterial activity against Mycobacterium tuberculosis mc2 6230 K204 assessed as MIC of kanamycin A at 25 uM incubated for 24 hrs followed by kanamycin A addition measured after 6 days by alamarblue dye based assay. As to conditions: Mycobacterium tuberculosis, mc2 6230 K204, 168 h, time 7 day, read-out: MIC. The test is classed as functional.

Test [14] concerns Mycobacterium tuberculosis. As to the kind of experiment: Antibacterial activity against Mycobacterium tuberculosis H37Rv assessed as MIC of kanamycin A at 71.7 uM incubated for 24 hrs followed by kanamycin A addition measured after 6 days by alamarblue dye based assay. The following applies: time 7.0 day. The test is classed as functional, organism-based.
Test [15] concerns Mycobacterium tuberculosis. Put plainly: Antibacterial activity against Mycobacterium tuberculosis K204 assessed as MIC of kanamycin A at 71.7 uM incubated for 24 hrs followed by kanamycin A addition measured after 6 days by alamarblue dye based assay. In kind it is functional, organism-based. As to conditions: time 7.0 day.
The test system of test [16] is Mycobacterium tuberculosis. Put plainly: Antibacterial activity against Mycobacterium tuberculosis H37Rv assessed as MIC of kanamycin A at 5 uM incubated for 24 hrs followed by kanamycin A addition measured after 6 days by alamarblue dye based assay. The test is classed as functional. The following applies: 168 h, time 7 day.
The test system of test [17] is Mycolicibacterium smegmatis. Put plainly: Antibacterial activity against Mycobacterium smegmatis mc2 122 assessed as bacterial growth inhibition incubated for 2 to 3 weeks by resazurin dye based assay. In kind it is functional. As to conditions: time 2-3 weeks.
Test [18] relates to Mycobacterium parascrofulaceum. Put plainly: Antibacterial activity against Mycobacterium parascrofulaceum ATCC BAA-614 assessed as bacterial growth inhibition incubated for 2 to 3 weeks by resazurin dye based assay. In kind it is functional. As to conditions: time 2-3 weeks.
In test [19] the test system is Mycobacterium tuberculosis. As to the kind of experiment: Antibacterial activity against Mycobacterium tuberculosis H37Rv assessed as bacterial growth inhibition measured after 6 days by alamarblue dye based assay. As to conditions: 144 h, time 6 day. The test is classed as functional.
Test [20] concerns Mycobacterium tuberculosis. Put plainly: Antibacterial activity against Mycobacterium tuberculosis mc2 6230 assessed as bacterial growth inhibition measured after 6 days by alamarblue dye based assay. In kind it is functional. The following applies: mc2 6230, 144 h, time 6 day.
Test [21] has as its system Mycobacterium tuberculosis. Put plainly: Antibacterial activity against Mycobacterium tuberculosis mc2 6230 K204 assessed as bacterial growth inhibition measured after 6 days by alamarblue dye based assay. The test is classed as functional. As to conditions: mc2 6230 K204, 144 h, time 6 day.
In test [22] the test system is Mycobacterium tuberculosis. As to the kind of experiment: Antibacterial activity against Mycobacterium tuberculosis H37Rv assessed as MIC of kanamycin A at 43.8 uM incubated for 24 hrs followed by kanamycin A addition measured after 6 days by alamarblue dye based assay. The following applies: 168 h, time 7 day. The test is classed as functional.

Each structure is given as a SMILES string. ≈ marks a conversion by molar mass, not a printed value. Calls of active or inactive are those of the source. No cut-off for these calls is given here. Some results are limits rather than exact numbers.

Broadly, the IC50 is the concentration that inhibits the measured activity by half. Broadly, the MIC is the lowest concentration that inhibits growth of the organism. `Fc1ccc(COc2ccc(CNCc3ccncc3)cc2)cc1` registered an IC50 at N-acetyltransferase Eis [1] of about 1.6 µM. The MIC in [2] is 7.8 µM (≈ 2.51 µg/mL); in test [3], at most 1.25 µg/mL; in test [4] it was 50 µM (≈ 16.1 µg/mL); in test [5], over 62.5 µM; with Mycobacterium avium it was over 62.5 µM; in test [6] it was 15.6 µM (≈ 5.03 µg/mL).
What is called Ki is a dissociation constant, usually derived from enzyme kinetics or from competition with a known ligand. `Brc1ccc(COc2ccccc2CNCc2ccccc2)cc1` displayed a 50% inhibitory concentration (IC50) against N-acetyltransferase Eis [1] of 1.3 µM. In addition, the MIC in test [2] was 31.3 µM (≈ 12 µg/mL); in test [4] it was 100 µM (≈ 38.2 µg/mL); in [8] it was under 1.25 µM; in test [9], over 10 µM; with Mycobacterium avium, over 62.5 µM; in test [6], 31.3 µM (≈ 12 µg/mL). Further, the outcome in test [7] was Active. The inhibitory constant (Ki) at N-acetyltransferase Eis [10] amounted to 5.26 µM.
On N-acetyltransferase Eis [1], `Clc1ccc(COc2ccc(CNCc3cccnc3)cc2)cc1` gave a 50% inhibitory concentration (IC50) of 2.9 µM. In addition, the minimum inhibitory concentration (MIC) in [2] is 31.3 µM (≈ 10.6 µg/mL); in [11], at most 1.25 µg/mL; in test [4], 50 µM (≈ 16.9 µg/mL); in test [12], under 1.25 µM; in [13], at most 1.25 µM; in [5] it was over 62.5 µM. Also, the MIC was over 62.5 µM with Mycobacterium avium and 15.6 µM (≈ 5.29 µg/mL) in test [6].
As to `Fc1ccc(COc2ccc(CNCc3cccnc3)cc2)cc1`, the 50% inhibitory concentration (IC50) against N-acetyltransferase Eis [1] is 3.9 µM. The MIC in [2] is 31.3 µM (≈ 10.1 µg/mL); in test [4], 50 µM (≈ 16.1 µg/mL); in [5] it was 31.3 µM (≈ 10.1 µg/mL); in the test with Mycobacterium avium, over 62.5 µM; in test [6] it was 31.3 µM (≈ 10.1 µg/mL). For the same compound, the result in test [7], in [14] and in test [15] was Active.
For `Clc1cccc(COc2ccccc2CNCc2ccncc2)c1`, the IC50 against N-acetyltransferase Eis [1] was 8.9 µM. The MIC was 62.5 µM (≈ 21.2 µg/mL) in test [2]; 2.5 µg/mL in [16]; 100 µM (≈ 33.9 µg/mL) in test [4]; over 62.5 µM in test [17]; over 62.5 µM in test [5]; over 62.5 µM in the test with Mycobacterium avium. In addition, the minimum inhibitory concentration (MIC) was over 62.5 µM in test [6] and 31.3 µM (≈ 10.6 µg/mL) in test [18].
Turning to `NC[C@H]1O[C@H](O[C@H]2[C@H](O)[C@@H](O[C@H]3O[C@H](CO)[C@@H](O)[C@H](N)[C@H]3O)[C@H](N)C[C@@H]2N)[C@H](O)[C@@H](O)[C@@H]1O` [KANAMYCIN], the MIC in test [4] is under 1.25 µM; in test [19] it was 1.25 µg/mL (≈ 2.58 µM); in [20] it was under 1.25 µM; in test [21] it was 320 µM (≈ 155 µg/mL).
`Fc1ccc(COc2ccccc2CNCc2ccncc2)cc1` had an IC50 against N-acetyltransferase Eis [1] of about 100 µM. In addition, the results for the MIC in test [2], in test [22] and in test [4] were over 250 µM, 2.5 µg/mL and 50 µM (≈ 16.1 µg/mL), respectively.
